In US9993492B2, “Lysophospholipids and lysophospholipid analogues against honeybee brood diseases” (University of Graz, priority 2013, dated 2018):
Read-outs that look alike come from different tables or passages of the source.

Columns and labels:
[1] = tested on: Paenibacillus larvae (Eric II test strain); experiment: Inhibition zone test on Columbia agar; format: cell-based; conditions: amount 30 μg; 24 h, 34.5° C.
Description: (§1) As test organisms, several different strains of Paenibacillus larvae were used.
(§2) Overnight cultures of the vegetative forms of bacteria were prepared in BHI (brain heart infusion) liquid medium.
For the inhibition zone test, 500 μL of overnight culture were added to 15-20 mL of Columbia agar, mixed and poured onto a petri dish. After the agar solidified, either punched wholes are filled with different amounts of test compounds or test compounds are pipetted on paper discs (5 mm Ø). The plate is then incubated for 24 h (34.5° C.) and zones of inhibition are measured and given in mm. Lactic acid and penicillin G were used as positive controls.
E II—Eric II (test strain of Pl)

Paenibacillus larvae = experiment: Antimicrobial assay in BHI liquid medium, vegetative forms of Paenibacillus larvae (MIC); format: cell-based; conditions: for MIC / MIC (ppm): vegetative forms of Pl, liquid medium; for inhibitory / antibacterial activity against Pl (in words): in vitro
Description: For the evaluation of certain fatty acids and phospholipids, overnight cultures of vegetative forms of Pl were used (for results see Table 1.1).
as §1, §2
From these overnight cultures, an inoculum of 50 μl is added to 1.0 ml of BHI liquid medium to perform the bacterial test in liquid medium. The compound 1-O-oleoyl-sn-glycero-3-phosphocholine (oleoyl-LPC) together with a positive control was then added at concentrations of 2, 5 and 10 ppm and the test tubes were incubated for 24 h at 34.5° C. Then, the extinction of the solution was measured photometrically.

Melissococcus plutonius = experiment: Antimicrobial assay in liquid Basal Medium against Melissococcus plutonius (MIC); format: cell-based; conditions: for MIC / MIC (ppm): M. pl. in BM liquid medium, OE at 600 nm after 5 days; for inhibitory / antibacterial activity against M. pl. (in words): in vitro
Description: M. pl. was cultured in liquid Basal Medium (BM) for 4 days at 35° C. and from here serial dilutions were carried out to estimate CFU/ml by plating onto BM agar plates. 5 days later CFU were count and concentration was estimated to be 3.46*10^6 CFU/ml. For the antimicrobial assay, an inoculum of 50 μl of the liquid culture is added to 1 mL of BM liquid medium. A set of different substances were tested in different concentrations (2, 5 and 10 ppm) in order to find out their inhibitory effect against M. pl growth. For substances tested, concentration applied and results see table 1.2. Three replicates per substance were included in the experiment. 5 days after the experiment was started OE (optical extinction) was measured at 600 nm.

honeybee larvae = format: in vivo; conditions: for Ndead larvae total: days 1-7; for toxicity to honeybee larvae (footnote b): in vivo
Description: First instar larvae were transferred into plastic queen cups and fed the following diets: On the first day 10 μL of diet containing 6% glucose, 6% fructose, 1% yeast extract and 50% royal jelly were fed. Test substances (1-O-oleoyl-sn-glycero-3-phosphocholine (oleoyl-LPC), stearic acid, lysophosphatidylinositol and linoleic acid) were added to the first diet in amounts of 0.5 to 10 μg/larvae. For infection with spores of Paenibacillus larvae, larvae were grafted into 5 μL of diet containing test substances and subsequently 5 μL of diet with about 50 added Pl spores were given. Larvae were not fed on the second day to assure the consumption of the given diet. On the third day 20 μL of diet containing 7.5% glucose, 7.5% fructose, 1.5% yeast extract and 50% royal jelly were fed. Amounts of 30, 40 and 60 μL of diet composed of 9% glucose, 9% fructose, 2% yeast extract and 50% royal jelly were fed on the 4th, 5th and 6th day (method modified after Aupinel et al. [Aupinel et al. 2005. Bull Insectol 58:107-111]. Larvae were incubated at 34.5° C. and 95% relative humidity which was reduced to 80% on day 7. The mortality was checked daily for the first 7 days and when individuals emerged from queen cups at day 18 after the transfer into cups. To reduce the time for sporulation of Pl in the lab for security reasons, infection tests with Pl spores were stopped at day 7 with some experiments extend to day 12.
Larvae were fed according to a slightly modified rearing method of Aupinel et al., (2005). Larvae were fed for 6 days with different amounts of diets which always contained 50% of an aqueous solution (A, B, C) and 50% royal jelly (w/w). The solutions consisted of yeast extract (A=2%, B=3%, C=4%), glucose and fructose (A=12%, B=15%, C=18% each). 50 g portions of royal jelly (purchased from the Styrian school of beekeepers) were freeze stored at −20° C. Once a day all components of the needed diet were mixed freshly, warmed and fed to the larvae with a micro-pipette. On day 1 and 2 each larva was fed with 10 μL of diet A, on day three with 20 μL of diet B, on day four (30 μL), five (40 μL) and six (50 μL) with diet C. This way, each larva was supported with a total amount of 160 μL of food. The test compounds (see Table 4) were added each at the respective concentration on day 1, i.e. stearic acid (10 μg/larva), lysophosphatidylinositol (5 μg/larva), linoleic acid (12 μg/larva) and oleyol-LPC (10 μg/larva). Each larva was checked for its state of health under the binocular before feeding. A larva was defined healthy when movements of spiracles could be observed and it was shiny and plump. Cups with dead larvae were removed from the plate to prevent infections. To avoid microbial contamination, feeding took place under a laminar flow. Larvae were incubated at 34.5° C. and 90% RH. The mortality rates of the larvae are given below in table 4.1.

[2] = tested on: spores of Paenibacillus larvae; experiment: Spore assay in BHI liquid medium with plating for CFU; format: cell-based; conditions: lowest investigated dose (5 ppm); 114.6±28.4 spores per vial; 4 and 6 days
Description: A stock solution containing spores at a known concentration is used to inoculate c. 100 spores/mL medium. This assay is carried out in 20 mL cultivation tubes containing 1.0 mL of BHI (brain heart infusion) liquid medium. To this medium containing c. […] spores, test compounds are added at different concentrations (e.g., 2, 5 and 10 ppm), together with positive control (penicillin G at 5 ppm) and blank control.
To verify inoculation with c. 100 spores/mL, tubes containing BHI+spores are plated out immediately on agar plates to assess the number of colony forming units (CFU) after 6 days of incubation at 34.5° C.
For the control of viability of the spores, the turbidity (due to germination of spores and formation of vegetative forms) of tubes containing BHI+spores is evaluated on day 4.
For the test probes, bacterial growth is evaluated on day 4 and 6. For those tubes which are negative for bacterial growth, the whole medium (c. 1 mL) is plated onto agar plates and evaluated for CFUs after 2 and 6 days of incubation. CFUs visible after two days result from vegetative forms, while CFUs appearing after […] stem from spores.
The results of these tests allow identifying whether the tested compounds have an effect on spore germination in liquid medium and the viability of the spores as assessed by their germination on agar plates. […]

[3] = Paenibacillus larvae, 24 h, read-out: MIC (ppm)
[4] = Paenibacillus larvae, read-out: MIC
[5] = Melissococcus plutonius, 120 h, read-out: MIC
[6] = Melissococcus plutonius, 120 h, read-out: MIC (ppm)
[7] = stearic acid 10 μg/larva added on day 1, Nlarvae 96
[8] = linoleic acid 12 μg/larva added on day 1, Nlarvae 48
[9] = LPI 5 μg/larva added on day 1, Nlarvae 96

Compound | MIC (Paenibacillus larvae; [3]) [µg/mL] | MIC (Paenibacillus larvae; [4]) [µM] | MIC (Melissococcus plutonius; [5]) [µM] | MIC (Melissococcus plutonius; [6]) [µg/mL] | inhibitory / antibacterial activity against Pl (in words) (Paenibacillus larvae) | inhibitory / antibacterial activity against M. pl. (in words) (Melissococcus plutonius) | further results
CC(O)C(=O)O (stereo not shown) [LA (C+), lactic acid] | – | – | – | – | – | – | Inhibition zone (mm) [1]: 5 mm
CCCCCCCCCCCCCCCC(=O)O [palmitic acid] | > 20 | > 78 | > 40 | > 15 | – | – | –
CCCCCCCCCCCCCCCCCCOP(=O)([O-])OC1CC[N+](C)(C)CC1 [perifosine, 1,1-dimethylpiperidinium-4-yl octadecyl phosphate] | 2 | 4.3 | 4.3 | 2 | good in vitro Pl and M. pl. inhibitory activity | good in vitro Pl and M. pl. inhibitory activity | –
CCCCCCCCCCCCCCCCCC(=O)O [stearic acid] | > 20 | > 70 | > 35 | > 10 | – | – | Ndead larvae day 1 (honeybee larvae; [7]): 0; Ndead larvae day 2 (honeybee larvae; [7]): 0; Ndead larvae day 3 (honeybee larvae; [7]): 1; Ndead larvae day 4 (honeybee larvae; [7]): 0; Ndead larvae day 5 (honeybee larvae; [7]): 1; Ndead larvae day 6 (honeybee larvae; [7]): 3; Ndead larvae day 7 (honeybee larvae; [7]): 1; Ndead larvae total (honeybee larvae; [7]): 6
CCCCC/C=C\C/C=C\CCCCCCCC(=O)O [linoleic acid] | 0.5 | 1.8 | 3.6 | 1 | – | – | toxicity to honeybee larvae (footnote b) (honeybee larvae): ^btoxic to honeybee larvae; Ndead larvae day 1 (honeybee larvae; [8]): 0; Ndead larvae day 2 (honeybee larvae; [8]): 18; Ndead larvae day 3 (honeybee larvae; [8]): 2; Ndead larvae day 4 (honeybee larvae; [8]): 3; Ndead larvae day 5 (honeybee larvae; [8]): 1; Ndead larvae day 6 (honeybee larvae; [8]): 1; Ndead larvae day 7 (honeybee larvae; [8]): 1; Ndead larvae total (honeybee larvae; [8]): 26
L-α-lysophosphatidylinositol | – | – | – | – | did not show significant inhibitory activity | did not show significant inhibitory activity | MIC (ppm) (Paenibacillus larvae): >50 ppm; MIC (Paenibacillus larvae; read-out: MIC): >80 µM; Ndead larvae day 1 (honeybee larvae; [9]): 0; Ndead larvae day 2 (honeybee larvae; [9]): 0; Ndead larvae day 3 (honeybee larvae; [9]): 0; Ndead larvae day 4 (honeybee larvae; [9]): 0; Ndead larvae day 5 (honeybee larvae; [9]): 1; Ndead larvae day 6 (honeybee larvae; [9]): 1; Ndead larvae day 7 (honeybee larvae; [9]): 2; Ndead larvae total (honeybee larvae; [9]): 4; MIC (ppm) (Melissococcus plutonius): >10 ppm; MIC (Melissococcus plutonius; read-out: MIC): >15 µM
lysophosphatidylcholine | – | – | – | – | – | – | MIC (ppm) (Paenibacillus larvae): 2-5 ppm; larval mortality compared with control group (honeybee larvae; single dose fed on day one, up to 1-2% of fresh body weight of larvae younger than one day, assessed on day 7): no higher mortality than found in the control group; MIC (ppm) (Melissococcus plutonius): 2-5 ppm
CCCCCCCC/C=C\CCCCCCCC(=O)O [oleic acid] | 1 | 3.5 | 3.5 | 1 | – | – | toxicity to honeybee larvae (footnote b) (honeybee larvae): ^btoxic to honeybee larvae
CCCCCCCCCCCCCCCCCC(=O)OC[C@@H](O)COP(=O)([O-])OCC[N+](C)(C)C [1-O-stearoyl-sn-glycero-3-phosphocholine] | 5 | > 9.5 | > 5.7 | 3 | good in vitro Pl inhibitory activity | – | –
CCCCCCCCCCCCCCCCOP(=O)([O-])OCC[N+](C)(C)C [miltefosine, hexadecylphosphocholine] | 2 to 5 | 7.4 | 4.9 | 2 | good in vitro Pl and M. pl. inhibitory activity | good in vitro Pl and M. pl. inhibitory activity | killing of vegetative forms upon germination of spores [2]: all vegetative forms are killed
